This is an account of results in patent EP1043336A2, “Stereospecific antibodies for imidazolinone herbicides” (The Regents of the University of California, priority 1999, dated 2000).

One test concerns MAb 3A2. Description: Indirect competition EIA, cross-reactivity with common agrochemicals (wells coated with hapten 17-OA). Type of test: binding, mouse. As to conditions: for inhibition: 5-10 ppm. How it is done:
EIAs were done essentially as described by Karu et al (1994). For indirect EIAs, hapten-protein conjugates were adsorbed to wells of Immulon 2™ 96-well plates (Dynatech) in 0.1 mL of coating buffer (0.015 M Na2CO3 ― 0.035 M NaHCO3 ―0.003 M NaN3, pH 9.6). PBS-Tween containing 0.05% gelatin, 0.45 micron-filtered, was used as the diluent for antibodies and antibody-analyte mixtures, and as a blocking solution to prevent adventitious binding. The detecting antibody for the indirect EIAs was alkaline phosphatase conjugated goat anti-mouse IgG and IgM The substrate solution for color development was p-nitrophenyl phosphate 1 mg/mL, in 10% (w/v) diethanolamine-HCl, pH 9.8 ― 0.5 mM MgCl2 ― 3 mM NaN3. • 1. Indirect competition EIA. Indirect competition EIA (immobilized hapten conjugate) was used to evaluate the responses of mice, screen the MAbs, and quantify imidazolinone analytes. Optimal amounts of imidazolinone-BSA or -OVA conjugate for plate coating and dilutions for the hybridoma culture supernate or antiserum were determined by checkerboard assay. To perform the assay, wells were coated overnight at 4°C with a limiting amount of conjugate in 0.1 mL of coating buffer. Imidazolinone standards (0.5 to 5000 ppb) or unknowns were mixed with a limiting amount of antiserum or hybridoma culture fluid in the diluent and incubated overnight at 4°C in tightly sealed polypropylene tubes. The coated wells were washed and blocked with 0.2 mL of 0.05% gelatin in PBS-Tween for 30 minutes at room temperature. After another wash, aliquots (0.1 mL) of the antibody-analyte mixture were added to wells, and the remainder of the assay was performed as previously described (Karu et al., 1994). • 2. Direct competition EIA. Direct EIAs were performed by capturing the MAb on microwells and allowing the analyte to compete with a HRP-conjugated hapten for binding. Bound HRP-conjugate was then detected with a commercial HRP substrate. The sensitivity of this assay was enhanced by use of a commercial enzymatic signal amplification kit (GIBCO-BRL). Wells were coated with 200 or 500 ng of affinity-purified goat anti-mouse IgG or anti-mouse IgG Fc in the coating buffer at 4°C overnight. The next day, the wells were washed and blocked with PBS-Tween-gelatin for 30 minutes at room temperature, and then incubated for 1.5 hours at room temperature with hybridoma culture supernate. The plates were washed with PBS-Tween, and 0.1 mL of diluent containing the analyte and a limiting amount of biotinylated imidazolinone was added for 1.5 h at room temperature. The wells were washed three times with PBS-Tween, and Extravidin-alkaline phosphatase conjugate (Sigma) was then added for 30 minutes at room temperature. The plates were washed again with TBS (0.05 M Tris-HCl, pH 7.5,― 0.15 M NaCl) to remove remaining inorganic phosphate, which can inhibit the GIBCO-BRL EIA Amplification system. Substrate solution for the amplification step (0.05 mL) was added for 15 minutes at room temperature, followed by 0.05 mL of the enzymatic amplifying solution and chromogen. Color development at 492 nm was recorded. • 3. EIA Data Analysis. Color development was monitored on a Multiskan EIA reader (Flow Laboratories) interfaced with a Macintosh computer, and the rates of the reaction were calculated by linear regression. Competition EIA dose- response curves were fitted with a 4-parameter logistic equation (Karu et al., 1994). […]

In test [1] the test system is scFv p3A5.1c7 (scFv 3A5, SEQ.ID NO. 3). Description: Relative affinity of MAb and affinity-purified scFv by indirect EIA with equimolar protein. Type of test: binding, mouse. As to conditions: indirect EIA on 16-BSA, scFv versus MAb 3A5. How it is done:
The relative affinities of the MAbs and affinity-purified scFv were determined by indirect EIA using equimolar amounts of protein, essentially as described by Graham, B. M., et al. 1995. Cloning, expression, and characterization of a single-chain antibody fragment to the herbicide paraquat. J. Chem. Tech. Biotechnol. 63: 279-289. The results are illustrated in graphical form in Figures 15A (16-BSA) and 15B (17-OA), with the MAb represented by the solid line and the scFv represented by the broken line in each plot.

Test [2] deals with panel of monoclonal antibodies (MAbs). Description: Detection of imidazolinones by the panel of MAbs (EIA). Type of test: binding, mouse. How it is done: EIAs were done essentially as described by Karu et al (1994). For indirect EIAs, hapten-protein conjugates were adsorbed to wells of Immulon 2™ 96-well plates (Dynatech) in 0.1 mL of coating buffer (0.015 M Na2CO3 ― 0.035 M NaHCO3 ―0.003 M NaN3, pH 9.6). PBS-Tween containing 0.05% gelatin, 0.45 micron-filtered, was used as the diluent for antibodies and antibody-analyte mixtures, and as a blocking solution to prevent adventitious binding. The detecting antibody for the indirect EIAs was alkaline phosphatase conjugated goat anti-mouse IgG and IgM The substrate solution for color development was p-nitrophenyl phosphate 1 mg/mL, in 10% (w/v) diethanolamine-HCl, pH 9.8 ― 0.5 mM MgCl2 ― 3 mM NaN3. • 1. Indirect competition EIA. Indirect competition EIA (immobilized hapten conjugate) was used to evaluate the responses of mice, screen the MAbs, and quantify imidazolinone analytes. Optimal amounts of imidazolinone-BSA or -OVA conjugate for plate coating and dilutions for the hybridoma culture supernate or antiserum were determined by checkerboard assay. To perform the assay, wells were coated overnight at 4°C with a limiting amount of conjugate in 0.1 mL of coating buffer. Imidazolinone standards (0.5 to 5000 ppb) or unknowns were mixed with a limiting amount of antiserum or hybridoma culture fluid in the diluent and incubated overnight at 4°C in tightly sealed polypropylene tubes. The coated wells were washed and blocked with 0.2 mL of 0.05% gelatin in PBS-Tween for 30 minutes at room temperature. After another wash, aliquots (0.1 mL) of the antibody-analyte mixture were added to wells, and the remainder of the assay was performed as previously described (Karu et al., 1994). • 2. Direct competition EIA. Direct EIAs were performed by capturing the MAb on microwells and allowing the analyte to compete with a HRP-conjugated hapten for binding. Bound HRP-conjugate was then detected with a commercial HRP substrate. The sensitivity of this assay was enhanced by use of a commercial enzymatic signal amplification kit (GIBCO-BRL). Wells were coated with 200 or 500 ng of affinity-purified goat anti-mouse IgG or anti-mouse IgG Fc in the coating buffer at 4°C overnight. The next day, the wells were washed and blocked with PBS-Tween-gelatin for 30 minutes at room temperature, and then incubated for 1.5 hours at room temperature with hybridoma culture supernate. The plates were washed with PBS-Tween, and 0.1 mL of diluent containing the analyte and a limiting amount of biotinylated imidazolinone was added for 1.5 h at room temperature. The wells were washed three times with PBS-Tween, and Extravidin-alkaline phosphatase conjugate (Sigma) was then added for 30 minutes at room temperature. The plates were washed again with TBS (0.05 M Tris-HCl, pH 7.5,― 0.15 M NaCl) to remove remaining inorganic phosphate, which can inhibit the GIBCO-BRL EIA Amplification system. Substrate solution for the amplification step (0.05 mL) was added for 15 minutes at room temperature, followed by 0.05 mL of the enzymatic amplifying solution and chromogen. Color development at 492 nm was recorded. • 3. EIA Data Analysis. Color development was monitored on a Multiskan EIA reader (Flow Laboratories) interfaced with a Macintosh computer, and the rates of the reaction were calculated by linear regression. Competition EIA dose- response curves were fitted with a 4-parameter logistic equation (Karu et al., 1994).

In test [3] the test system is AHAS isozymes, designated I and II. As to conditions: isozymes from Black Mexican Sweet corn; cited from earlier work.
The subject of test [4] is scFv p3A5.1c7 (scFv 3A5, SEQ.ID NO. 3). Description: Indirect competition EIA with scFv (16-BSA coating), compared with MAb 3A5.1. The format is binding, mouse. As to conditions: scFv on 16-BSA versus MAb 3A5.1.

With `CCCN(CCC)C(=O)SCC` [EPTC, S-ethyl dipropylthiocarbamate], the cross-reactivity entry in the test on MAb 3A2 (up to 10 ppm) was “No cross-reactivity”.

Turning to `CCc1cccc(CC)c1N(COC)C(=O)CCl` [alachlor, 2-chloro-2'-6'-diethyl-N-(methoxymethyl)-acetanilide], the cross-reactivity result with MAb 3A2 (up to 10 ppm) is listed as “No cross-reactivity”. As for `CCNc1nc(Cl)nc(NC(C)C)n1` [atrazine, Atrazine], the cross-reactivity entry in the test on MAb 3A2 (up to 10 ppm) is on record as “No cross-reactivity”.

For the molecule `CCOC(=O)c1ccccc1S(=O)(=O)NC(=O)Nc1nc(Cl)cc(OC)n1` [chlorimuron ethyl, ethyl 2-[[[[(4-chloro-6-methoxypyrimidin 2-yl)amino]carbonyl]amino]sulfonyl]benzoate], the inhibition with MAb 3A2 is recorded as 10-15%. For the same molecule, in the test with MAb 3A2 (up to 5 ppm), the cross-reactivity result is reported as “did not cross-react”. Turning to `COc1nc(C)nc(NC(=O)NS(=O)(=O)c2ccccc2Cl)n1` [chlorsulfuron, 2-chloro-N[(4-methoxy-6-methyl-1,3,5 triazin-2-yl)aminocarbonyl]benzenesulfonamide], the inhibition with MAb 3A2 was 10-15%. In the test on MAb 3A2 (up to 5 ppm), the cross-reactivity result is on record as “did not cross-react”. On to `CC(C)N.O=C(O)CNCP(=O)(O)O` [glyphosate, N-(phosphono-methyl) glycine isopropylamine salt], for which the cross-reactivity result with MAb 3A2 (up to 10 ppm) is reported as “No cross-reactivity”. Take `CC(C)C1(C)N=C(c2ncc(C=CC(=O)O)cc2C(=O)O)NC1=O` (stereo not shown) [hapten 16, imazapyr-5-propenoic acid]: the “affinity of the scFv relative to that of the MAb (fold poorer)” value in test [1] is “about 1,000 fold”. For the molecule `Cc1cnc(C2=NC(C)(C(C)C)C(=O)N2)c(C(=O)O)c1` (stereo not shown) [imazapic, 5-methyl-2-(4-isopropyl-4-methyl-5-oxo-2-imidazolin-2-yl) nicotinic acid], the detection range in test [2] lay within 3 to 30 ng/mL.

`CC(C)C1(C)N=C(c2ncccc2C(=O)O)NC1=O` (stereo not shown) [imazapyr, 2-(4-isopropyl-4-methyl-5-oxo-2-imidazolin-2-yl) nicotinic acid]: the detection range in test [2] was 300-500 ppb. The “sensitivity of AHAS II vs AHAS I to inhibition” value in test [3] is listed as “significantly more sensitive”.

Consider `CC(C)C1(C)N=C(c2nc3ccccc3cc2C(=O)O)NC1=O` (stereo not shown) [imazaquin, 2-(4-isopropyl-4-methyl-5-oxo-2-imidazolin-2-yl)-3-quinoline carboxylic acid], for which, in test [2], the detection range fell in the range of 3 to 30 ng/mL. Also, in test [4], the “I50 with scFv relative to I50 with the MAb (higher = less sensitive)” value is “about two-fold”. As for `CCc1cccc(C)c1N(C(=O)CCl)C(C)COC` (stereo not shown) [metolachlor, 2-chloro-N-(2-ethyl-6-methylphenyl)-N-(2-methoxy-1-methylethyl) acetamide], in the test on MAb 3A2 (up to 10 ppm), the cross-reactivity entry is given as “No cross-reactivity”. For `CCSC(=O)N1CCCCCC1` [molinate, S-ethyl-hexahydro-1-H-azepine-1-carbothioate], the cross-reactivity entry in the test with MAb 3A2 (up to 10 ppm) was “No cross-reactivity”.

For the molecule `CCOc1cc(Oc2ccc(C(F)(F)F)cc2Cl)ccc1[N+](=O)[O-]` [oxyfluorfen, 2-chloro-1-(3-ethoxy-4-nitrophenoxy)-4-(trifluoromethyl) benzene], the cross-reactivity result in the test on MAb 3A2 (up to 10 ppm) is on record as “No cross-reactivity”.

With `C[n+]1ccc(-c2cc[n+](C)cc2)cc1.[Cl-].[Cl-]` [paraquat, 1,1'-dimethyl-4,4'-bipyridinium dichloride], in the test with MAb 3A2 (up to 10 ppm), the cross-reactivity result is “No cross-reactivity”. Still for that read-out and setting: in the case of `CCC(CC)Nc1c([N+](=O)[O-])cc(C)c(C)c1[N+](=O)[O-]` [pendimethalin, N-(1-ethylpropyl)-3,4-dimethyl-2,6-dinitrobenzenamine] it was “No cross-reactivity”; in that of `COC(=O)Nc1cccc(OC(=O)Nc2cccc(C)c2)c1` [phenmedipham, 3-methoxycarbonylaminophenyl-N(3'-methylphenyl)carbamate], “No cross-reactivity”; in that of `CCC/C(=N\OCC)C1=C(O)CC(CC(C)SCC)CC1=O` (stereo not shown) [sethoxydim], “No cross-reactivity”. With “a mixture of methyl 6-(4-isopropyl-4-methyl-5-oxo-2-imidazolin-2-yl) m-toluate and methyl 2-(4-isopropyl-4-methyl-5-oxo-2-imidazolin-2-yl) p-toluate [imazamethabenz-methyl]”, the detection range in test [2] is 300-500 ppb.
